The text below walks through data of paper PMC5836727 (ACS chemical biology, 2017).

SMILES strings stand for the structures.

The target in test [1] is T1, firefly luciferase (Photinus pyralis, UniProt P08659). The test is described as follows: bioluminescence of transfected live CHO cells. The class given is cell-based. Particulars: 100 uM in HBSS.
Test [2] addresses T1, firefly luciferase. The test is described as follows: bioluminescence burst kinetics after rapid injection. Particulars: 100 nM enzyme, 100 uM substrate. It is filed as biochemical.
A further test concerns the target T2, CG6178 (Drosophila melanogaster, UniProt Q9VCC6).
T2 sequence (Q9VCC6 1-544): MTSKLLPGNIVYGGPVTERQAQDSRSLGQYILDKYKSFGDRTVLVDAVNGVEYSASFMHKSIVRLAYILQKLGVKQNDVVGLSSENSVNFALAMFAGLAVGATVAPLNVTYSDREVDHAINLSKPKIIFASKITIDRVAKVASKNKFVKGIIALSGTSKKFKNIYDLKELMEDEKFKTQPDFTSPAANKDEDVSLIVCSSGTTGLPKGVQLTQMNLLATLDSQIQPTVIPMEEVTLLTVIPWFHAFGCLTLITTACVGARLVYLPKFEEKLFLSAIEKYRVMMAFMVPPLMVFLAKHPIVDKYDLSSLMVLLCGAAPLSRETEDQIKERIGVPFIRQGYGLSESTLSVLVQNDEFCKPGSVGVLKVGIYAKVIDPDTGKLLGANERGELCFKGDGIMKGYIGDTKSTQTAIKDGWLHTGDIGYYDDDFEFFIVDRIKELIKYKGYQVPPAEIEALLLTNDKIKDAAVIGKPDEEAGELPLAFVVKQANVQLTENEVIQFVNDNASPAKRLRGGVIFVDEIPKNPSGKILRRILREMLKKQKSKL
The test is described as follows: bioluminescence. The settings on record: ATP, MgSO4, pH 7.4; 20 nM enzyme, 250 uM luciferin. It is filed as biochemical.

T1 sequence (P08659 whole entry): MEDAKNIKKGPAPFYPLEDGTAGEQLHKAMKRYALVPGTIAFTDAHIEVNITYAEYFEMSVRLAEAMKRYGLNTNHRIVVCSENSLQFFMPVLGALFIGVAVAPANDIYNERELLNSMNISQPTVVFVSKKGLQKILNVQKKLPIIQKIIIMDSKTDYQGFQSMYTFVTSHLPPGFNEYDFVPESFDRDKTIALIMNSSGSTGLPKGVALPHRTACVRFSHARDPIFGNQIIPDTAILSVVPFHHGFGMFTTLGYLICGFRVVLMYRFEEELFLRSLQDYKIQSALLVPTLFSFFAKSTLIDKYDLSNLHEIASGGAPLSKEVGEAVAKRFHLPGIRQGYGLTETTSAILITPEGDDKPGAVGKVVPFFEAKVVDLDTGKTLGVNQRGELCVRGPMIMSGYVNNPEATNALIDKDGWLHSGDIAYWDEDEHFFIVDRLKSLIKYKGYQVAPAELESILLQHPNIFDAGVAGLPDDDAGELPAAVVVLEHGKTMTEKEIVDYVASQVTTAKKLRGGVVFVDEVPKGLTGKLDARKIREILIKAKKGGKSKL

As for `O=C(O)[C@H]1CSC(/C=C/c2ccc(N3CCCC3)cc2)=N1` [compound 5, (S,E)-2-(4-(pyrrolidin-1-yl)styryl)-4,5-dihydrothiazole-4-carboxylic acid], the “bioluminescence of transfected live CHO cells” value at firefly luciferase [1] was “all three are substrates for firefly luciferase and AbLL”.
In the case of `O=C(O)[C@H]1CSC(c2nc3ccc(O)cc3s2)=N1` [D-luciferin], the “bioluminescence burst kinetics after rapid injection” value on firefly luciferase [2] is on record as “more pronounced with the tighter-binding synthetic luciferins than with D-luciferin”.
As to `CN1CCc2cc3nc(C4=N[C@@H](C(=O)O)CS4)sc3cc21` [CycLuc2], the “bioluminescence (photon flux, IVIS-100; burst kinetics)” value on CG6178 is listed as “we found that CG6178 is capable of luciferase activity when treated with the synthetic luciferin CycLuc2”.
